The subject of assay [1] is Phosphorylated Ribosomal Protein S6 (RPS6) in THP-1 cells. As to the kind of experiment: THP-1 RPS6 ELISA Assay. The assay is classed as cell-based, Human. The following applies: Homo sapiens, serum starved, 2 hours compound, 10 nM MCP-1 for 15 minutes, Phospho-RPS6 ELISA, read-out: PI3Kγ_THP1_RPS6_ELISA IC50. The protocol: Example A. THP-1 RPS6 ELISA Assay
To measure the Phosphorylated Ribosomal Protein S6 (RPS6) in cell lysates, THP-1 cells (Human Acute Monocytic Leukemia) are purchased from ATCC (Manassas, VA) and maintained in RPMI with 10% FBS (Gibco/Life Technologies, Carlsbad, CA). For the assay, THP-1 cells are serum starved overnight in RPMI, then plated in RPMI (2×10^5 cells/well in 90 μL) into 96-well flat-bottom tissue culture treated plates (Corning, Corning, NY), in the presence or absence of a concentration range of test compounds. Covered plates are incubated for 2 hours at 37° C., 5% CO2 then treated with or without 10 nM MCP-1(MYBioSource, San Diego, CA) for 15 minutes at 37° C., 5% CO2. Plates are centrifuged at 1600 RPM and supernatants are removed. Cells are lysed in Lysis Buffer (Cell Signaling, Danvers, MA) with Protease Inhibitor (Calbiochem/EMD, Germany), PMSF (Sigma, St Louis MO), HALTS (Thermo Fisher, Rockford, IL) for 30 min on wet ice. Cell lysates are frozen at −80° C. before testing. The lysates are tested in the Human/Mouse/Rat Phospho-RPS6 ELISA (R&D Systems, Inc. Minn, MN). The plate is measured using a microplate reader (SpectraMax M5—Molecular Devices, LLC Sunnyvale, CA) set to 450 nm with a wavelength correction of 540. IC50 determination is performed by fitting the curve of inhibitor percent inhibition versus the log of the inhibitor concentration using the GraphPad Prism 5.0 software.
On the technique in general: ELISA stands for enzyme-linked immunosorbent assay.

For assay [2], the target named is PI3Kδ (p110δ/p85α) Recombinant Human Protein (Homo sapiens (Human), UniProt O00329). As to the kind of experiment: PI3Kδ Scintillation Proximity Assay. The format is biochemical. The conditions noted are these: 20 μM PIP2, 2 μM ATP, SPA. The source says:
Example C. PI3Kδ Scintillation Proximity Assay Materials: [γ-^33P]ATP (10 mCi/mL) and Wheat Germ Agglutinin (WGA) YSi SPA Scintillation Beads was purchased from Perkin Elmer (Waltham, MA). Lipid kinase substrate, D-myo-Phosphatidylinositol 4,5-bisphosphate (PtdIns(4,5)P2)D (+)-sn-1,2-di-O-octanoylglyceryl, 3-O-phospho linked (PIP2), CAS 204858-53-7, was purchased from Echelon Biosciences (Salt Lake City, UT). PI3Kδ (p110δ/p85α) Recombinant Human Protein was purchased from Eurofins (St Charles, MO). ATP, MgCl2, DTT, EDTA, MOPS and CHAPS were purchased from Sigma Aldrich (St. Louis, MO). The kinase reaction was conducted in polystyrene 384-well Greiner Bio-one white plate from Thermo Fisher Scientific in a final volume of 25 μL. Inhibitors were first diluted serially in DMSO and added to the plate wells before the addition of other reaction components. The final concentration of DMSO in the assay was 2%. The PI3Kδ assay was carried out at room temperature in 20 mM MOPS, pH 6.7, 10 mM MgCl2, 5 mM DTT and CHAPS 0.03%. Reactions were initiated by the addition of ATP, the final reaction mixture consisted of 20 μM PIP2, 2 μM ATP, 0.5 μCi [γ-^33P] ATP, 3.4 nM PI3Kδ. Reactions were incubated for 120 min and terminated by the addition of 40 μL SPA beads suspended in quench buffer: 163 mM potassium phosphate pH 7.8, 20% glycerol, 25 mM EDTA. The final concentration of SPA beads is 1.0 mg/mL. After the plate sealing, plates were shaken overnight at room temperature and centrifuged at 1500 rpm for 10 min, the radioactivity of the product was determined by scintillation counting on Topcount (PerkinElmer). IC50 determination was performed by fitting the curve of percent of the solvent control activity versus the log of the inhibitor concentration using the GraphPad Prism 6.0 software.

The target in assay [3] is PI3Kγ (p110γ) Recombinant Human Protein (Homo sapiens (Human), UniProt P48736). Briefly: PI3K-γ Scintillation Proximity Assay. The assay is classed as biochemical. The following applies: 20 μM PIP2, 2 μM ATP, SPA. The source says:
Example B. PI3K-γ Scintillation Proximity Assay Materials: [γ-^33P]ATP (10 mCi/mL) and Wheat Germ Agglutinin (WGA) YSi SPA Scintillation Beads was purchased from Perkin Elmer (Waltham, MA). Lipid kinase substrate, D-myo-Phosphatidylinositol 4,5-bisphosphate (PtdIns(4,5)P2)D (+)-sn-1,2-di-O-octanoylglyceryl, 3-O-phospho linked (PIP2), CAS 204858-53-7, was purchased from Echelon Biosciences (Salt Lake City, UT). PI3Kγ (p110γ) Recombinant Human Protein was purchased from Life technology (Grand Island, NY). ATP, MgCl2, DTT, EDTA, MOPS and CHAPS were purchased from Sigma Aldrich (St. Louis, MO). The kinase reaction was conducted in polystyrene 384-well Greiner Bio-one white plate from Thermo Fisher Scientific in a final volume of 25 μL. Inhibitors were first diluted serially in DMSO and added to the plate wells before the addition of other reaction components. The final concentration of DMSO in the assay was 2%. The PI3Kγ assay was carried out at room temperature in 20 mM MOPS, pH 6.7, 10 mM MgCl2, 5 mM DTT and CHAPS 0.03%. Reactions were initiated by the addition of ATP, the final reaction mixture consisted of 20 μM PIP2, 2 μM ATP, 0.5 μCi [γ-^33P] ATP, 13 nM PI3Kγ. Reactions were incubated for 120 min and terminated by the addition of 40 μL SPA beads suspended in quench buffer: 163 mM potassium phosphate pH 7.8, 20% glycerol, 25 mM EDTA. The final concentration of SPA beads is 1.0 mg/mL. After the plate sealing, plates were shaken overnight at room temperature and centrifuged at 1500 rpm for 10 min, the radioactivity of the product was determined by scintillation counting on Topcount (Perkin-Elmer). IC50 determination was performed by fitting the curve of percent of the solvent control activity versus the log of the inhibitor concentration using the GraphPad Prism 6.0 software.

Sequence of PI3Kδ (p110δ/p85α) Recombinant Human Protein (O00329 whole entry): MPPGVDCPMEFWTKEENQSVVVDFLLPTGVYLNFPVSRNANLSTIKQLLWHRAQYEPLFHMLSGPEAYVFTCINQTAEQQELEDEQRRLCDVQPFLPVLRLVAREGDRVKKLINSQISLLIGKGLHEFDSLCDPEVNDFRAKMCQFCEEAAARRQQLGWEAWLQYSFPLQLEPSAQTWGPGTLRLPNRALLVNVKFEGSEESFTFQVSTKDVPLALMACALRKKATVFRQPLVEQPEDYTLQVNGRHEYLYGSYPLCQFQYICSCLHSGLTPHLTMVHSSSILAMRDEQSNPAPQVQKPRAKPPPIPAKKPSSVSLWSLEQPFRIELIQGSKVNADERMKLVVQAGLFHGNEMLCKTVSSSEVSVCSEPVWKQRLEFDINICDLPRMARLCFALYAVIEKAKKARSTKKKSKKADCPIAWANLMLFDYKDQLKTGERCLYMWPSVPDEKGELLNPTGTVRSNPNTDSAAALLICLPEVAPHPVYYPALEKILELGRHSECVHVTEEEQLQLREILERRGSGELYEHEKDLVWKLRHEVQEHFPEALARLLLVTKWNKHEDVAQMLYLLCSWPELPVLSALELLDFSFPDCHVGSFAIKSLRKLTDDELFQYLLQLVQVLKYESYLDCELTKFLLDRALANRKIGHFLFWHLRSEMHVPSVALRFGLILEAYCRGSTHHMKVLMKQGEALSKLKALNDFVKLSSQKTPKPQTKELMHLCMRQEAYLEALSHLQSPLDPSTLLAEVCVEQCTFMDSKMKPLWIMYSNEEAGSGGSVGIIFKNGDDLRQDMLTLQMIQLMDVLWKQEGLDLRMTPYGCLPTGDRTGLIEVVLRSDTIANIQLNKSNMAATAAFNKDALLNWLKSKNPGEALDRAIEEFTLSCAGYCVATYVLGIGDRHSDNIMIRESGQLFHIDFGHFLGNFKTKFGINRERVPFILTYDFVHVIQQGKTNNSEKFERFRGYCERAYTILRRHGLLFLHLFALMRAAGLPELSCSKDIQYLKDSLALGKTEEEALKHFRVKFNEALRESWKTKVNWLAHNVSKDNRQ
Sequence of PI3Kδ (p110δ/p85α) Recombinant Human Protein (P27986 whole entry partner): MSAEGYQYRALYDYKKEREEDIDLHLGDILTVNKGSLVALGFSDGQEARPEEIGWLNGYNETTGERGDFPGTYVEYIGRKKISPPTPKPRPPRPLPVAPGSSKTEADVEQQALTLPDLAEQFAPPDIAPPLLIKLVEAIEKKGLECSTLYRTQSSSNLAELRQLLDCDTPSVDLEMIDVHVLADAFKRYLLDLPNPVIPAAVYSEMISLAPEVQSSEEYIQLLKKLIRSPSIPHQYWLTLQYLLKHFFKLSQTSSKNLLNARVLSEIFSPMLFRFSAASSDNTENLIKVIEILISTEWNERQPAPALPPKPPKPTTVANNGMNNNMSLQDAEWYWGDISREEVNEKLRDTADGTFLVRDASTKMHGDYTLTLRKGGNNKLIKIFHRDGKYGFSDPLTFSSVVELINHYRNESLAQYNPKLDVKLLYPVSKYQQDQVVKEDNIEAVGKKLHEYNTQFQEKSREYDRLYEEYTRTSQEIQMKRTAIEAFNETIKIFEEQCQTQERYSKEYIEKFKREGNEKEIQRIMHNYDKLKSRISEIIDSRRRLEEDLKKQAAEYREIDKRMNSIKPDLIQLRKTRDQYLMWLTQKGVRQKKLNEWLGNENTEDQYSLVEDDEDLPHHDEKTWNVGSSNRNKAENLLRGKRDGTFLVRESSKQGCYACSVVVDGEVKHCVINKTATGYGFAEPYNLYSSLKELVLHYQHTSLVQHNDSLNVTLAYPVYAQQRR
Sequence of PI3Kγ (p110γ) Recombinant Human Protein (P48736 whole entry): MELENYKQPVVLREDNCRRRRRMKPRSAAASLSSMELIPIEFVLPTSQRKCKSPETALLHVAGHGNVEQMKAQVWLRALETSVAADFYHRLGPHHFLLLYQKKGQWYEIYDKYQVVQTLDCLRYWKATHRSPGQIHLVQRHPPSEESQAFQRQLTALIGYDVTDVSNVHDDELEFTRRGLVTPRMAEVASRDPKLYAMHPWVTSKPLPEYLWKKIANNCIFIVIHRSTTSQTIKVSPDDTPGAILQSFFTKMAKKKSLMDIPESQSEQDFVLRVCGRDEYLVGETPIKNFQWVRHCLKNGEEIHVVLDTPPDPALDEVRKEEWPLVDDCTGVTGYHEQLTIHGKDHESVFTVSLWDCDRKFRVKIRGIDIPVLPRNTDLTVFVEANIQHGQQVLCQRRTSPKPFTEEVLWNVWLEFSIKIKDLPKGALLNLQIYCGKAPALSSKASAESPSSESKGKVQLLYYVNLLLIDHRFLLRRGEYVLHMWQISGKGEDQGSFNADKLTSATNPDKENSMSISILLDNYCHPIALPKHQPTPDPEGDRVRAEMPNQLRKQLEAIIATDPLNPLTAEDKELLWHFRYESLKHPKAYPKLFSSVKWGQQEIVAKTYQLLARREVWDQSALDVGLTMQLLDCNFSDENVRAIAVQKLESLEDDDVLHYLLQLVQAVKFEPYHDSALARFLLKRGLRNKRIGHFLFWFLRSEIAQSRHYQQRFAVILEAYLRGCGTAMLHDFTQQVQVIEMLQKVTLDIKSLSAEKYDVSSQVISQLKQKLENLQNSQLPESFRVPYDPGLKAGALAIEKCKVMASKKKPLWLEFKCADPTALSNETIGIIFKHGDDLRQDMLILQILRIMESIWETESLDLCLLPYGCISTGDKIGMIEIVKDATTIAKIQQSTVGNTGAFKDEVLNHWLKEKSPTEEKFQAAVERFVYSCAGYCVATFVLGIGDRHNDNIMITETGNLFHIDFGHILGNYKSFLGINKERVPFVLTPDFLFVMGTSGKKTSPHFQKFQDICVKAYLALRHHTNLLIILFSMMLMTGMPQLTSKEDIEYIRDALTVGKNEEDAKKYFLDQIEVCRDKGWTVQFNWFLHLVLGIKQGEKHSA

Broadly, the IC50 is the concentration at which inhibition is half-maximal. With `[2H]C([2H])([2H])c1ccc(C(O)(C(C)O)C(F)(F)F)cc1-c1cnc(N)c(C(=O)NC2CCOCC2)n1` (single isomer, unassigned) [Example 19, 3-Amino-6-(2-(methyl-d3)-5-(1,1,1-trifluoro-2,3-dihydroxybutan-2-yl)phenyl)-N-(tetrahydro-2H-pyran-4-yl)pyrazine-2-carboxamide], the IC50 in assay [1] was in the range of 100 to 500 nM.
On the same count and under the same terms, then `Cc1ccc(C(O)(CO)C(F)(F)F)cc1-c1cnc(N)c(C2CC(C(=O)N3CC(O)C3)C2)n1` (single isomer, unassigned) [Example 24, (3-(3-Amino-6-(2-methyl-5-(1,1,1-trifluoro-2,3-dihydroxypropan-2-yl)phenyl)pyrazin-2-yl)cyclobutyl)(3-hydroxyazetidin-1-yl)methanone], with 100 to 500 nM.
Consider `Cc1ccc([C@](O)(CO)C(F)F)cc1-c1cnc(N)c(C(=O)N[C@@H](C)CO)n1` (single isomer, unassigned) [Example 43], for which the IC50 in assay [2] and in assay [1] was 100 to 500 nM each time.
Turning to `Cc1ccc(C(O)(CO)C(F)(F)F)cc1-c1cnc(N)c(-c2cnn(C)c2)n1` (centres unmarked) [Example 2, 2-(3-(5-Amino-6-(1-methyl-1H-pyrazol-4-yl)pyrazin-2-yl)-4-methylphenyl)-3,3,3-trifluoropropane-1,2-diol], the IC50 in assay [3] and in assay [2] was at most 100 nM throughout.
As for `Cc1ccc(C(O)(CO)C(F)(F)F)cc1-c1cnc(N)c(-c2cn[nH]c2)n1` (centres unmarked) [Example 3, 2-(3-(5-Amino-6-(1H-pyrazol-4-yl)pyrazin-2-yl)-4-methylphenyl)-3,3,3-trifluoropropane-1,2-diol], the IC50 in assay [3] and in assay [2] was at most 100 nM each time.
Turning to `Cc1cc(-c2nc(-c3cc(C(O)(CO)C(F)(F)F)ccc3C)cnc2N)on1` (centres unmarked) [Example 4, 2-(3-(5-Amino-6-(3-methylisoxazol-5-yl)pyrazin-2-yl)-4-methylphenyl)-3,3,3-trifluoropropane-1,2-diol], the IC50 in assay [3] and in assay [2] was at most 100 nM in each case.
Regarding `Cc1ccc(C(O)(CO)C(F)(F)F)cc1-c1cnc(N)c(-c2cnsc2)n1` (centres unmarked) [Example 5, 2-(3-(5-Amino-6-(isothiazol-4-yl)pyrazin-2-yl)-4-methylphenyl)-3,3,3-trifluoropropane-1,2-diol], the IC50 in assay [3] and in assay [2] was at most 100 nM in each case.
Take `Cc1ccc(C(O)(CO)C(F)(F)F)cc1-c1cnc(N)c(-c2ccns2)n1` (centres unmarked) [Example 6, 2-(3-(5-Amino-6-(isothiazol-5-yl)pyrazin-2-yl)-4-methylphenyl)-3,3,3-trifluoropropane-1,2-diol]: the IC50 in assay [3] and in assay [2] was at most 100 nM in each case.
`Cc1cc(-c2nc(-c3cc(C(O)(CO)C(F)(F)F)ccc3C)cnc2N)sn1` (centres unmarked) [Example 7, 2-(3-(5-amino-6-(3-methylisothiazol-5-yl)pyrazin-2-yl)-4-methylphenyl)-3,3,3-trifluoropropane-1,2-diol]: the IC50 in assay [3] and in assay [2] was at most 100 nM each time.
`Cc1ncc(-c2nc(-c3cc(C(O)(CO)C(F)(F)F)ccc3C)cnc2N)s1` (centres unmarked) [Example 10, 2-(3-(5-Amino-6-(2-methylthiazol-5-yl)pyrazin-2-yl)-4-methvlphenyl)-3,3,3-trifluoropropane-1,2-diol]: the IC50 in assay [3] and in assay [2] was at most 100 nM in each case.
As to `Cc1ccc(C(O)(CO)C(F)(F)F)cc1-c1cnc(N)c(-c2cnco2)n1` (centres unmarked) [Example 11, 2-(3-(5-Amino-6-(oxazol-5-yl)pyrazin-2-yl)-4-methylphenyl)-3,3,3-trifluoropropane-1,2-diol], the IC50 in assay [3] and in assay [2] was at most 100 nM in each case.
Take `Cc1ccc(C(O)(CO)C(F)(F)F)cc1-c1cnc(N)c(-n2ccnn2)n1` (centres unmarked) [Example 13, 2-(3-(5-Amino-6-(1H-1,2,3-triazol-1-yl)pyrazin-2-yl)-4-methylphenyl)-3,3,3-trifluoropropane-1,2-diol]: the IC50 in assay [3] and in assay [2] was at most 100 nM each time.
In the case of `[2H]C([2H])([2H])c1ccc(C(O)(C(O)C(F)(F)F)C(F)(F)F)cc1-c1cnc(N)c(-c2c[nH]nc2C)n1` (centres unmarked) [Example 20, 2-(3-(5-Amino-6-(3-methyl-1H-pyrazol-4-yl)pyrazin-2-yl)-4-(methyl-d3)phenyl)-1,1,1,4,4,4-hexafluorobutane-2,3-diol], in assay [2], the IC50 is 100 to 500 nM.
Turning to `Cc1ccc(C(O)(C(C)(C)O)C(F)(F)F)cc1-c1cnc(N)c(C(=O)NC2CCOCC2)n1` (centres unmarked) [Example 22, 3-Amino-6-(2-methyl-5-(1,1,1-trifluoro-2,3-dihydroxy-3-methylbutan-2-yl)phenyl)-N-(tetrahydro-2H-pyran-4-yl)pyrazine-2-carboxamide], in assay [2], the IC50 lay within 100 to 500 nM.
Turning to `[2H]C([2H])([2H])c1ccc([C@](O)(CO)C(F)(F)F)cc1-c1cnc(N)c(C(=O)N[C@H](C)CO)n1` [Example 36, 3-Amino-N-((R)-1-hydroxypropan-2-yl)-6-(2-(methyl-d3)-5-((S)-1,1,1-trifluoro-2,3-dihydroxypropan-2-yl)phenyl)pyrazine-2-carboxamide], in assay [1], the IC50 lay within 100 to 500 nM.
Regarding `[2H]C([2H])([2H])c1ccc([C@](O)(CO)C(F)F)cc1-c1cnc(N)c(C(=O)N[C@H]2CCCC[C@@H]2O)n1` [Example 38, 3-Amino-6-(5-((S)-1,1-difluoro-2,3-dihydroxypropan-2-yl)-2-(methyl-d3)phenyl)-N-((1S,2S)-2-hydroxycyclohexyl)pyrazine-2-carboxamide], the 50% inhibitory concentration (IC50) in assay [1] lay within 100 to 500 nM.
In the case of `[2H]C([2H])([2H])c1ccc([C@](O)(CO)C(F)F)cc1-c1cnc(N)c(C(=O)N[C@@H]2CCCC[C@H]2O)n1` [Example 39, 3-Amino-6-(5-((S)-1,1-difluoro-2,3-dihydroxypropan-2-yl)-2-(methyl-d3)phenyl)-N-((1R,2R)-2-hydroxycyclohexyl)pyrazine-2-carboxamide], in assay [1], the IC50 lay within 100 to 500 nM.
As for `Cc1ccc([C@](O)(CO)C(F)F)cc1-c1cnc(N)c(C(=O)NC(C)C)n1` [Example 46, (S)-3-Amino-6-(5-(1,1-difluoro-2,3-dihydroxypropan-2-yl)-2-methylphenyl)-N-isopropylpyrazine-2-carboxamide], the IC50 in assay [3] and in assay [2] was at most 100 nM throughout.

Source of the values: US12365668B2, “Aminopyrazine diol compounds as PI3K-y inhibitors” (Incyte Corporation, priority 2018, dated 2025).
